Reference: ChEMBL document CHEMBL5625242, “Discovery of brain permeable 2-Azabicyclo[2.2.2]octane sulfonamides as a novel class of presenilin-1 selective γ-secretase inhibitors” (Eur J Med Chem, 2023)
Values after ≈ are worked out from the molar mass of the structure shown.

Legend:
[1] = species on record: Homo sapiens; test: Selectivity ratio of IC50 for human PSEN1/APH1A expressed in MEF cells with Psen1/2 double knockout/Aph1ABC triple knockout to IC50 for human PSEN1/APH1B expressed in MEF cells with Psen1/2 double knockout/Aph1ABC triple knockout; type: cell-based
[2] = Inhibition of human PSEN1/APH1A expressed in MEF cells with Psen1/2 double knockout/Aph1ABC triple knockout by ELISA; type: cell-based
[3] = Inhibition of human PSEN2/APH1A expressed in MEF cells with Psen1/2 double knockout/Aph1ABC triple knockout by ELISA; type: cell-based
[4] = Inhibition of human PSEN1/APH1B expressed in MEF cells with Psen1/2 double knockout/Aph1ABC triple knockout by ELISA; type: cell-based
[5] = Inhibition of human PSEN2/APH1B expressed in MEF cells with Psen1/2 double knockout/Aph1ABC triple knockout by ELISA; type: cell-based
[6] = species on record: Homo sapiens; test: Selectivity ratio of IC50 for human PSEN2/APH1A expressed in MEF cells with Psen1/2 double knockout/Aph1ABC triple knockout to IC50 for human PSEN1/APH1B expressed in MEF cells with Psen1/2 double knockout/Aph1ABC triple knockout; type: cell-based
[7] = species on record: Homo sapiens; test: Selectivity ratio of IC50 for human PSEN2/APH1B expressed in MEF cells with Psen1/2 double knockout/Aph1ABC triple knockout to IC50 for human PSEN1/APH1B expressed in MEF cells with Psen1/2 double knockout/Aph1ABC triple knockout; type: cell-based
[8] = Free fraction in rat brain homogenate at 5 uM incubated for 5 hrs by HPLC-MS/MS analysis; type: ADME, tissue-based
[9] = molecular target: Cytochrome P450 3A4 (Homo sapiens, UniProt P08684); test: Inhibition of human CYP3A4 using midazolam as substrate by fluorescence based assay; type: ADME
Cytochrome P450 3A4, sequence (P08684 whole entry): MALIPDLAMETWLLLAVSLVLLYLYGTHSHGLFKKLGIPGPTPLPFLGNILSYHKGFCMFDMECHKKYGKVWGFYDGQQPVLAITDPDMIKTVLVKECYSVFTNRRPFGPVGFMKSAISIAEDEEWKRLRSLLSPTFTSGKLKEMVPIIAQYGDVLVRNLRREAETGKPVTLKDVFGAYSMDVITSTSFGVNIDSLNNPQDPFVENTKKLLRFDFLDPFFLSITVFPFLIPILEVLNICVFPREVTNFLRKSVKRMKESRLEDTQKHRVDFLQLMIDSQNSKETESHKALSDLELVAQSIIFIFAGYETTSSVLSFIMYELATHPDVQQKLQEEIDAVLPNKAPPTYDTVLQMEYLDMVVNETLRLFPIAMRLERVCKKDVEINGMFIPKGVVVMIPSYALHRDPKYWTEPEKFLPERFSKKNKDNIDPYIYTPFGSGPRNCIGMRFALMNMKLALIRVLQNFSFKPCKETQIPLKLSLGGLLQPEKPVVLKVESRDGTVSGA

[10] = Protein binding in mouse plasma assessed as free fraction at 5 uM incubated for 4.5 hrs by HPLC analysis; type: ADME, cell-free
[11] = molecular target: T1, Cytochrome P450 1A2 (Homo sapiens, UniProt P05177); test: Inhibition of human CYP1A2 using phenacetin as substrate by fluorescence based assay; type: ADME
T1 sequence (P05177 whole entry): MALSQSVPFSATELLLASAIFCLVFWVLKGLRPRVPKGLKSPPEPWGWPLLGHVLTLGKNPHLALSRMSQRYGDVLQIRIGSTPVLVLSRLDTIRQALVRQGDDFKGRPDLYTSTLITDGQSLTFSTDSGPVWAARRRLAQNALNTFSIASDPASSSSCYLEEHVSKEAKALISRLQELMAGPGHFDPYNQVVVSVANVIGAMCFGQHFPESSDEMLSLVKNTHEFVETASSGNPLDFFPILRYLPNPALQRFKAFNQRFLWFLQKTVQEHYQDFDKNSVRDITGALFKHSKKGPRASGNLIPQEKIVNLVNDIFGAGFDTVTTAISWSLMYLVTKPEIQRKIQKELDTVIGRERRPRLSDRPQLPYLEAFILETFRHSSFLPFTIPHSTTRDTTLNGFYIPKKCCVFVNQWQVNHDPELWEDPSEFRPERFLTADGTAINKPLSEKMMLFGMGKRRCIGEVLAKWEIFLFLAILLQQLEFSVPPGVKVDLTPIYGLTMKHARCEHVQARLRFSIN

[12] = system: sodium channel; test: Inhibition of rat sodium channel; type: toxicity
[13] = Drug concentration in Swiss mouse plasma at 2.5 mg/kg, iv measured at 5 mins post-dose; type: ADME, organism-based
[14] = Metabolic stability in mouse liver microsomes assessed as intrinsic clearance; type: ADME, Microsome
[15] = Unbound drug concentration in Swiss mouse plasma at 2.5 mg/kg, iv measured at 5 mins post-dose; type: ADME, organism-based; conditions: in vivo
[16] = Kinetic solubility of compound at pH 7.4; type: physicochemical; conditions: buffer, read-out: Kinetic_solubility
[17] = system: human MDR1; test: Efflux ratio of apparent permeability basal to apical side over apical to basal side in MDCK cells transfected with human MDR1 at 5 uM by LC-MS/MS analysis; type: ADME, cell-based, Canis lupus familiaris; conditions: dog
[18] = molecular target: T2, Cytochrome P450 2C8 (Homo sapiens, UniProt P10632); test: Inhibition of human CYP2C8 using amodiaquine as substrate by fluorescence based assay; type: ADME
T2 sequence (P10632 whole entry): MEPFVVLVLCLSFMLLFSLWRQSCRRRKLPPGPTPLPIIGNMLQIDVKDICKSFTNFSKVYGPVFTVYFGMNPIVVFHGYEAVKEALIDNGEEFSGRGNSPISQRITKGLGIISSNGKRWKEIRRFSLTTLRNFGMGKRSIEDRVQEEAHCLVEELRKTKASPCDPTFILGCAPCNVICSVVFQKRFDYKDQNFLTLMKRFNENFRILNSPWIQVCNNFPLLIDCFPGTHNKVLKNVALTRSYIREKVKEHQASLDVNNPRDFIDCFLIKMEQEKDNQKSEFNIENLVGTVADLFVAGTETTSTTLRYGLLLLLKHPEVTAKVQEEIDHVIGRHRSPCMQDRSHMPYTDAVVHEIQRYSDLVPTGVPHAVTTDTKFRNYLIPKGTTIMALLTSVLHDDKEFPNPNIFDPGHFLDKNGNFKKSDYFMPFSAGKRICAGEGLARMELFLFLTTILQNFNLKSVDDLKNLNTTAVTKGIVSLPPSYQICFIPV

[19] = Metabolic stability in human liver microsomes assessed as intrinsic clearance; type: ADME, Microsome
[20] = molecular target: Cytochrome P450 2D6 (Homo sapiens, UniProt P10635); test: Inhibition of human CYP2D6 using dextrometorphan as substrate by fluorescence based assay; type: ADME
Cytochrome P450 2D6, sequence (P10635 whole entry): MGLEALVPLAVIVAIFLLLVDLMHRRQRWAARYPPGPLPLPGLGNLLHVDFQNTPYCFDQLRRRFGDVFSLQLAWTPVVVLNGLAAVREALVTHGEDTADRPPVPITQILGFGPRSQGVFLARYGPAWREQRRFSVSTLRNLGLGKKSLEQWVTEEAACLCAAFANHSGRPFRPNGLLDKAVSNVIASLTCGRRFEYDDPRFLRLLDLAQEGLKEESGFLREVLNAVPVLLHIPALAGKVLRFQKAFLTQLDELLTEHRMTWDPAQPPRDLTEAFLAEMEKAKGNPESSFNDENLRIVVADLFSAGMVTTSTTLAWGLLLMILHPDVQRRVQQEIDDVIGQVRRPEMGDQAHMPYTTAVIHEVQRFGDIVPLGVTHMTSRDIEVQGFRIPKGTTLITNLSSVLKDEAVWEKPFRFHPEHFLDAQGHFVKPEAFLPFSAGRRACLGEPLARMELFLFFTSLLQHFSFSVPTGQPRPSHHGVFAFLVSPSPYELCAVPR

[21] = Ratio of unbound drug concentration in brain to plasma in Swiss mouse at 2.5 mg/kg, iv measured at 5 mins post-dose; type: ADME, organism-based; conditions: read-out: K(p,uu,brain)
[22] = Kinetic solubility of compound at pH 4; type: physicochemical; conditions: buffer, read-out: Kinetic_solubility
[23] = Kinetic solubility of compound at pH 2; type: physicochemical; conditions: buffer, read-out: Kinetic_solubility
[24] = system: calcium channel; test: Inhibition of rat calcium channel; type: toxicity
[25] = molecular target: Cytochrome P450 2C19 (Homo sapiens, UniProt P33261); test: Inhibition of human CYP2C19 using S-mephenytoin as substrate by fluorescence based assay; type: ADME
Cytochrome P450 2C19, sequence (P33261 whole entry): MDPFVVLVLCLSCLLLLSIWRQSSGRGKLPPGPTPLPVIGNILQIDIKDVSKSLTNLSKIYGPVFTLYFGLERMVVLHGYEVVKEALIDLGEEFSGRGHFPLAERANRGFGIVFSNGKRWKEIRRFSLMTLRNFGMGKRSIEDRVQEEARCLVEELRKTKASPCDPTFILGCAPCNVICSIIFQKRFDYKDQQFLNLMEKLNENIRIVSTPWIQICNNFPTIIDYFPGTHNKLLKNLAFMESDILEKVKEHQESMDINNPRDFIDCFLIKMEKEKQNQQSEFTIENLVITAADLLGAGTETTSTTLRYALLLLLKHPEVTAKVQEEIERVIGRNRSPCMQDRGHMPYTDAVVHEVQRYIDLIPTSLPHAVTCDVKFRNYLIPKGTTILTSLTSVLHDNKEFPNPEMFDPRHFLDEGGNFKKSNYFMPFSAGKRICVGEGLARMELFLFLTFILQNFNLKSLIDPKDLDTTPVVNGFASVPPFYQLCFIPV

[26] = Protein binding in human plasma assessed as free fraction at 5 uM incubated for 4.5 hrs by HPLC analysis; type: ADME, cell-free
[27] = molecular target: Cytochrome P450 2C9 (Homo sapiens, UniProt P11712); test: Inhibition of human CYP2C9 using tolbutamide as substrate by fluorescence based assay; type: ADME
Cytochrome P450 2C9, sequence (P11712 whole entry): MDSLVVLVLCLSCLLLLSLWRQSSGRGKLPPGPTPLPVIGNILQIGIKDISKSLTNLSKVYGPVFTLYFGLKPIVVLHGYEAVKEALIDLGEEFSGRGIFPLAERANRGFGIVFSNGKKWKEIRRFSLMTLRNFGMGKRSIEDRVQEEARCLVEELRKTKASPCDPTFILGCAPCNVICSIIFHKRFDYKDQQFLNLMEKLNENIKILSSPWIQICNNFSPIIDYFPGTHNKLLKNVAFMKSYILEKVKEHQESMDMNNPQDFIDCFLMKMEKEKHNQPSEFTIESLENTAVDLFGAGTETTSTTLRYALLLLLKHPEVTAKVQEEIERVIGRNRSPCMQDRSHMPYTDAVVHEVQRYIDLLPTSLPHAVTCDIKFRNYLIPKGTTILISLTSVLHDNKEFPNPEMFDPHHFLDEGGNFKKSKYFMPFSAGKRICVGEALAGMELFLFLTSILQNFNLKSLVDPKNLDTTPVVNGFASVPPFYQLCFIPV

[28] = Drug concentration in Swiss mouse brain at 2.5 mg/kg, iv measured at 5 mins post-dose; type: ADME, organism-based; conditions: read-out: Ct
[29] = molecular target: Voltage-gated inwardly rectifying potassium channel KCNH2 (Homo sapiens, UniProt Q12809); test: Inhibition of hERG; type: toxicity
Voltage-gated inwardly rectifying potassium channel KCNH2, sequence (Q12809 whole entry): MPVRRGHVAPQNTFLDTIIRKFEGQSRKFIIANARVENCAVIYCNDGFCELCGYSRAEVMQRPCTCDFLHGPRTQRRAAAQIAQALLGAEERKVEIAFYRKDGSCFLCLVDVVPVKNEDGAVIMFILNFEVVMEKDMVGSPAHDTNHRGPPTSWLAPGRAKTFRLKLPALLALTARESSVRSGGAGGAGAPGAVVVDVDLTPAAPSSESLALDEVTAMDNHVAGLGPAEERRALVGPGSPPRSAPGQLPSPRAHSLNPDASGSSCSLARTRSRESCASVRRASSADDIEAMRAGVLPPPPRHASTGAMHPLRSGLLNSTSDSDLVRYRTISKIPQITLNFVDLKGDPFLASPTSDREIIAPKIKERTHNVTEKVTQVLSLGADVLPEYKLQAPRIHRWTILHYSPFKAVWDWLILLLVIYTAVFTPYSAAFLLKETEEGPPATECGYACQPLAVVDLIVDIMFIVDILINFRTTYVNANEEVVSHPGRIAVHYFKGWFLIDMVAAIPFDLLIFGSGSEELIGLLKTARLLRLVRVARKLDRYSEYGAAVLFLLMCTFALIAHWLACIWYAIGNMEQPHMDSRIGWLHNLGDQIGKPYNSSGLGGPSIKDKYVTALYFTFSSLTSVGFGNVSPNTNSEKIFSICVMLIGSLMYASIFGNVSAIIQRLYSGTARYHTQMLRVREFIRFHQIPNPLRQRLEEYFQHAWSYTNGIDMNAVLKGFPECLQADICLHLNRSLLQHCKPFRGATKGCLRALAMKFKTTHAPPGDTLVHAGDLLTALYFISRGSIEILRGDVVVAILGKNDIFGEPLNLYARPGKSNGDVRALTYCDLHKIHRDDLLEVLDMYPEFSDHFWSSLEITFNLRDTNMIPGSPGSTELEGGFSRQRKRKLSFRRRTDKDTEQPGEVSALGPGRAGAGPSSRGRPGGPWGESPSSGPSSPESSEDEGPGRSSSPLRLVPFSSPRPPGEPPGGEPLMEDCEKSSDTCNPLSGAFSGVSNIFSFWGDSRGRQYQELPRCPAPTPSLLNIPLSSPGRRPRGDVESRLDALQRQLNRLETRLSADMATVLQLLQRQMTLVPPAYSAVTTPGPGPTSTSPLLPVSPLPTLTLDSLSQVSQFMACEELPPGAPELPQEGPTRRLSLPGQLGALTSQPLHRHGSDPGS

[30] = Ratio of drug concentration in brain to plasma of Swiss mouse at 2.5 mg/kg, iv measured at 5 mins post-dose; type: ADME, organism-based; conditions: read-out: BPR
[31] = system: human MDR1; test: Apparent permeability across apical to basal side in MDCK cells transfected with human MDR1 at 5 uM by LC-MS/MS analysis; type: ADME, cell-based, Canis lupus familiaris; conditions: dog
[32] = liver microsomes, read-out: CLH

## O=C1C[C@@H]2CC[C@H]1[C@@H](c1cc(F)ccc1F)N2S(=O)(=O)c1ccc(Cl)s1 (racemic)
[1]
  Ratio IC50: 13
[2]
  IC50: 7080 nM
[3]
  IC50: > 10 µM
[4]
  IC50: 512 nM
[5]
  IC50: > 10 µM

## O=S(=O)(c1ccc(Cl)cc1)N1[C@H]2CC[C@@H]([C@H]1c1ccc(C(F)(F)F)cc1)[C@@H](O)C2 (racemic) [listing 1 of 2 here]
[6]
  Ratio IC50: > 390
[1]
  Ratio IC50: > 5
[7]
  Ratio IC50: > 330

## O=C1C[C@@H]2CC[C@H]1[C@@H](c1ccc(F)c(F)c1)N2S(=O)(=O)c1ccc(Cl)cc1 (racemic)
[1]
  Ratio IC50: > 3
[2]
  IC50: > 5370 nM
[3]
  IC50: > 10 µM
[4]
  IC50: 1120 nM
[5]
  IC50: > 10 µM

## N#Cc1ccc([C@@H]2[C@@H]3CC[C@@H](C[C@@H]3O)N2S(=O)(=O)c2ccc(Cl)cc2)cn1
[8]
  fraction unbound at 5 h, 5 µM: 0.119
[9]
  IC50: > 10 µM
[10]
  fraction unbound at 4.5 h, 5 µM: 0.0869
[11]
  IC50: > 10 µM
[12]
  IC50: > 10 µM
[13]
  concentration at 5 min: 731 ng/mL
[14]; microsomes
  CLH: 110 µL/min/mg
[15]
  Cp(f): 63.5 ng/mL
[16]
  solubility kinetic: 7 µM (≈ 2.83 µg/mL)
[17]
  efflux ratio at 5 µM: 32.3
[18]
  IC50: > 10 µM
[19]; microsomes
  CLH: 78.4 µL/min/mg
[20]
  IC50: > 10 µM
[21]
  Kp uu at 5 min: 0.68
[22]
  solubility kinetic: 13 µM (≈ 5.25 µg/mL)
[2]
  IC50: 72 nM
[23]
  solubility kinetic: 13 µM (≈ 5.25 µg/mL)
[24]
  IC50: > 10 µM
[3]
  IC50: 1.23 µM
[4]
  IC50: 12.9 nM
[25]
  IC50: > 10 µM
[26]
  fraction unbound at 4.5 h, 5 µM: 0.156
[5]
  IC50: 0.776 µM
[27]
  IC50: > 10 µM
[28]
  concentration at 5 min: 363 ng/g
[29]
  IC50: > 10 µM
[30]
  Kp at 5 min: 0.5
[31]
  Papp A→B at 5 µM: 2.5 ×10⁻⁶ cm/s

## O=C1C[C@@H]2CC[C@H]1[C@@H](c1ccc(C(F)(F)F)cc1)N2S(=O)(=O)c1ccc(Cl)cc1 (racemic)
[6]
  Ratio IC50: > 150
[1]
  Ratio IC50: 9
[2]
  IC50: 316 nM
[3]
  IC50: > 10 µM
[4]
  IC50: 34 nM
[5]
  IC50: > 5 µM
[7]
  Ratio IC50: > 150

## CCOC(=O)Nc1ccc([C@@H]2[C@@H]3CC[C@@H](CC3=O)N2S(=O)(=O)c2ccc(Cl)cc2)cc1 (racemic)
[6]
  Ratio IC50: > 20
[1]
  Ratio IC50: > 11
[2]
  IC50: 3240 nM
[3]
  IC50: 6.17 µM
[4]
  IC50: 288 nM
[5]
  IC50: 6.46 µM
[7]
  Ratio IC50: > 20

## O=S(=O)(c1ccc(Cl)cc1)N1[C@H]2CC[C@@H]([C@H]1c1ccc(C(F)(F)F)cc1)[C@@H](O)C2 (racemic) [listing 2 of 2 here]
[14]; [32]
  microsomal CLint: > 347 µL/min/mg
[19]; [32]
  microsomal CLint: > 347 µL/min/mg
[2]
  IC50: 41.7 nM
[3]
  IC50: 2.82 µM
[4]
  IC50: 7.2 nM
[5]
  IC50: 2.45 µM

## N#Cc1ccc(S(=O)(=O)N2[C@H]3CC[C@H](C(=O)C3)[C@H]2c2ccc(C(F)(F)F)cc2)cc1 (racemic)
[1]
  Ratio IC50: > 40
[2]
  IC50: > 10000 nM
[3]
  IC50: > 10 µM
[4]
  IC50: 1550 nM
[5]
  IC50: > 10 µM

## N#Cc1ccc([C@@H]2[C@@H]3CC[C@@H](C[C@@H]3O)N2S(=O)(=O)c2ccc(Cl)cc2)c(F)c1 (racemic)
[6]
  Ratio IC50: 40
[1]
  Ratio IC50: 2
[2]
  IC50: 6.9 nM
[3]
  IC50: 0.147 µM
[4]
  IC50: 2.4 nM
[5]
  IC50: 0.257 µM
[7]
  Ratio IC50: 100
